One assay concerns the target DNA-PK protein complex (Homo sapiens, UniProt P78527). The assay can be described thus: DNA-PK kinase assay (FlashPlate, 33P-ATP). The assay is classed as biochemical. The following applies: biotin-DNA-PK peptide substrate, 5 μM ATP, 90 minutes at room temperature. The method, then:
Description of the Method for the Testing of DNA-PK Inhibitors
The kinase assay is carried out in […] microtitre FlashPlates®, coated with streptavidin. 1.5 μg of the DNA-PK protein complex and […] of biotinylated substrate, for example PESQEAFADLWKK biotin-NH2 (“biotin-DNA-PK peptide”) in a total volume of 36.5 μl (34.25 mM Hepes/KOH, 7.85 mM Tris-HCl, 68.5 mM KCl, 5 μM ATP, 6.85 mM MgCl2, 0.5 mM EDTA, 0.14 mM EGTA, 0.69 mM DTT, pH 7.4), are incubated at room temperature for 90 minutes with or without test substance in a well containing 500 ng of DNA from calf thymus, 0.1 μCi of 33P-ATP and 1.8% of DMSO. The reaction is stopped by addition of 50 μl/well of 200 mM EDTA. After incubation for 30 minutes, the liquids are removed at room temperature. Each well is washed three times with 100 μl of 0.9% NaCl solution. Non-specific reaction (blank) is determined using a proprietary kinase inhibitor (10 μM). The radioactivity is measured by means of a Topcount. IC50 values calculated in RS1. Literature: Molecular Cancer Therapeutics 2003, 1257-1264; DNA-dependent protein kinase inhibitors as drug candidates for the treatment of cancer; A. Kashishian, H. Douangpanya, D. Clark, S. T. Schlachter, C. Todd Eary, J. G. Schiro, H. Huang, L. E. Burgess, E. A. Kesicki, and J. Halbrook.

In the next assay the test system is PI3K. Briefly: Cellular testing of PI3K inhibitors: P-S473-PKB Luminex assay in PC3 cells. It is filed as cell-based. As to conditions: phosphorylation of PKB at Serin 473, 30 min incubation, serum-free. The method, then:
Description of the Method for the Cellular Testing of PI3K Inhibitors The measure used for the cellular PI3K activity is the PI3K-dependent phosphorylation of PKB at Serin 473. The cellular assay for determination of the P-S473-PKB level is carried out as a Luminex assay in 96-well format in PC3 cells. […] PC3 cells are sown out with 20,000 cells per well in 100 μl medium (45% RPMI1460/45% Ham's F12/10% FCS) and incubated on the following day for 30 min with a serial dilution of the test substance (7 concentrations) under serum-free conditions. The cells are subsequently lysed using 90 μl of lysis buffer (20 mM Tris/HCl pH 8.0, 150 mM NaCl, 1% NP40, 10% glycerol, 1% phosphatase inhibitor I, 1% phosphatase inhibitor II, 0.1% protease inhibitor cocktail III, 0.01% benzonase) per well, and the lysates are separated off from insoluble cell constituents by means of centrifugation through a 96-well filter plate (0.65 μm). The lysates are incubated overnight at 4° C. with shaking with Luminex beads to which an anti-total PKB antibody is coupled. The detection is carried out on the following day by addition of a P-S473-PKB antibody and a species-specific PE-labelled secondary antibody. The detection of P-S473-PKB is carried out by measurement in a Luminex100 instrument by determination of 100 events per cavity in a measurement time of 60 sec. As pharmacological blank, the signals obtained from cells which have been treated with 3 μM wortmannin are subtracted from all other preparations. The control value used for maximum phosphorylation of PKB at S473 are the signals from cells which have been treated only with the solvent (0.3% DMSO). The values of the preparations treated with test substance are calculated from this as percent of control, and IC50 values are determined by means of RS1.

Experimental findings from US9006255B2, “Quinazoline derivatives” (Merck Patent GmbH, priority 2010, dated 2015) are described below.

The term IC50 denotes the concentration that inhibits the measured activity by half. High values mean lower potency, low ones higher potency. As to `c1ccc2c(c1)CCN2c1ncnc2ccc(-c3cnc4[nH]ccc4c3)cc12` [Compound A1, 4-(2,3-dihydroindol-1-yl)-6-(1H-pyrrolo[2,3-b]pyridin-5-yl)quinazoline], the IC50 against DNA-PK protein complex was in the range of 1 to 100 nM; in the assay with PI3K, 100 to 10000 nM. On the same counts, the results for `c1ccc2c(c1)CN(c1ncnc3ccc(-c4cnc5[nH]ccc5c4)cc13)C2` [Compound A2, 4-(1,3-dihydroisoindol-2-yl)-6-(1H-pyrrolo[2,3-b]pyridin-5-yl)quinazoline] are 1 to 100 nM and 100 to 10000 nM.

As to `c1ccc2c(c1)CCCN2c1ncnc2ccc(-c3cnc4[nH]ccc4c3)cc12` [Compound A3, 4-(3,4-dihydro-2H-quinolin-1-yl)-6-(1H-pyrrolo[2,3-b]pyridin-5-yl)quinazoline], the IC50 against DNA-PK protein complex lay within 1 to 100 nM; with PI3K it was 100 to 10000 nM. Take `Cc1nc2cc(-c3ccc4ncnc(N5CCc6ccccc6C5)c4c3)cnc2[nH]1` [Compound A4, 4-(3,4-dihydro-1H-isoquinolin-2-yl)-6-(2-methyl-3H-imidazo[4,5-b]pyridin-6-yl)quinazoline]: the half-inhibitory concentration (IC50) against DNA-PK protein complex and with PI3K was 1 to 100 nM each time. Turning to `Cc1nc2cc(-c3ccc4ncnc(N5CCCc6ccccc65)c4c3)cnc2[nH]1` [Compound A5, 4-(3,4-dihydro-2H-quinolin-1-yl)-6-(2-methyl-3H-imidazo-[4,5-b]pyridin-6-yl)quinazoline], the IC50 at DNA-PK protein complex was in the range of 1 to 100 nM; with PI3K, 100 to 10000 nM. Taken in the same sequence, the figures for `c1ccc2c(c1)CCN(c1ncnc3ccc(-c4cnc5[nH]ccc5c4)nc13)C2` [Compound A6, 4-(3,4-dihydro-1H-isoquinolin-2-yl)-6-(1H-pyrrolo[2,3-b]pyridin-5-yl)pyrido[3,2-d]pyrimidine] were 1 to 100 nM and 100 to 10000 nM. In the case of `COc1cc2c(cc1OC)CN(c1ncnc3ccc(-c4cnc5[nH]ccc5c4)nc13)CC2` [Compound A7, 4-(6,7-dimethoxy-3,4-dihydro-1H-isoquinolin-2-yl)-6-(1H-pyrrolo[2,3-b]pyridin-5-yl)pyrido[3,2-d]pyrimidine], the IC50 against DNA-PK protein complex was in the range of 1 to 100 nM. For `Cc1nc2cc(-c3ccc4ncnc(N5CCc6ccccc6C5)c4n3)cnc2[nH]1` [Compound A8, 4-(3,4-dihydro-1H-isoquinolin-2-yl)-6-(2-methyl-3H-imidazo[4,5-b]pyridin-6-yl)-pyrido[3,2-d]pyrimidine], the IC50 on DNA-PK protein complex and in the assay on PI3K was 1 to 100 nM throughout. For the molecule `COc1cc2c(cc1OC)CN(c1ncnc3ccc(-c4cnc5[nH]c(C)nc5c4)nc13)CC2` [Compound A9, 4-(6,7-dimethoxy-3,4-dihydro-1H-isoquinolin-2-yl)-6-(2-methyl-3H-imidazo[4,5-b]pyridin-6-yl)pyrido[3,2-d]pyrimidine], the IC50 against DNA-PK protein complex and in the assay with PI3K was 1 to 100 nM throughout.

Take `CCc1nc2cc(-c3ccc4ncnc(N5CCc6ccccc6C5)c4c3)cnc2[nH]1` [Compound A10, 4-(3,4-dihydro-1H-isoquinolin-2-yl)-6-(2-ethyl-3H-imidazo[4,5-b]pyridin-6-yl)quinazoline]: the IC50 against DNA-PK protein complex and in the assay on PI3K was 1 to 100 nM throughout. For `COc1ccc2c(c1)CN(c1ncnc3ccc(-c4cnc5[nH]c(C)nc5c4)cc13)CC2` [Compound A11, 4-(7-methoxy-3,4-dihydro-1H-isoquinolin-2-yl)-6-(2-methyl-3H-imidazo[4,5-b]pyridin-6-yl)quinazoline], the IC50 against DNA-PK protein complex and in the assay on PI3K was 1 to 100 nM each time. As for `Cc1nc2cc(-c3ccc4ncnc(N5CCOc6ccccc65)c4c3)cnc2[nH]1` [Compound A12, 4-[6-(2-methyl-3H-imidazo[4,5-b]pyridin-6-yl)quinazolin-4-yl]-3,4-dihydro-2H-benzo-1,4-oxazine], the results for the half-maximal inhibitory concentration (IC50) at DNA-PK protein complex and in the assay on PI3K were 1 to 100 nM and 100 to 10000 nM, respectively. Taken in the same sequence, the figures for `Cc1nc2cc(-c3ccc4ncnc(N5CCC(=O)c6ccccc65)c4c3)cnc2[nH]1` [Compound A13, 1-[6-(2-methyl-3H-imidazo[4,5-b]pyridin-6-yl)quinazolin-4-yl]-2,3-dihydro-1H-quinolin-4-one] were 1 to 100 nM and 100 to 10000 nM.
